The source made the active and inactive calls. The rule behind the calls is not given here.

From ChEMBL document CHEMBL1150847, “New lactone-containing metabolites from a marine-derived bacterium of the genus Streptomyces” (J Nat Prod, 2001) come the findings set out here.

The test system of the assay is Candida albicans. Briefly: Antifungal activity against Candida albicans by paper disk method. It is filed as functional, organism-based.
In the case of `CC(C)CC[C@@H]1C(=O)O[C@@H](C)[C@@H]1O`, the result was Active. The value for `CC(=O)C(C)CCCCCC1C=CC(=O)O1` (configuration not stated) was “Active”. The value for `CCCC[C@H]1C(=O)O[C@@H](C)[C@@H]1O` was “Active”; that for `CCC(C)(O)CCCCCC1C=CC(=O)O1` (configuration not stated) was “Active”; that for `CC(C)(O)CCCCCC1C=CC(=O)O1` (configuration not stated) was “Active”. Under `CCC(C)C[C@H]1C(=O)O[C@@H](C)[C@@H]1O` (some centres not stated) stands “Active”; under `CC(C)CC[C@H]1C(=O)O[C@@H](C)[C@@H]1O`, “Active”.
